Assay results taken from ChEMBL document CHEMBL1201862, “PubChem BioAssay data set” (2004).
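Dose response: 5 concentrations. Exposure: 48 h. Format: 96-well plates. Endpoint: linear interpolation; highest concentration if not reached. GI50 = concentration required for 50% inhibition of growth.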 Activity calls are given as the source filed them. No stated cut-off is given here; in the data, active = GI50 up to about 1.1 µM and inactive = higher.

How the values were obtained:
Assay in all cases: inhibition of tumour cell growth, NCI panel, 48 h
PC-3 = tested on: PC-3
SF-539 = tested on: SF-539
786-0 = tested on: 786-0
CAKI-1 = tested on: CAKI-1
RXF 393 = tested on: RXF 393
ACHN = tested on: ACHN
MDA-MB-435 = tested on: MDA-MB-435
SN12C = tested on: SN12C
MDA-N = tested on: MDA-N
IGROV-1 = tested on: IGROV-1
NCI-H23 = tested on: NCI-H23
SR = tested on: SR
KM12 = tested on: KM12
UACC-62 = tested on: UACC-62
CCRF-CEM = tested on: CCRF-CEM
HCC 2998 = tested on: HCC 2998
OVCAR-8 = tested on: OVCAR-8
A498 = tested on: A498
SNB-19 = tested on: SNB-19
DU-145 = tested on: DU-145

Row | SMILES | GI50 (PC-3) | GI50 (SF-539) | GI50 (786-0) | GI50 (CAKI-1) | GI50 (RXF 393) | GI50 (ACHN) | GI50 (MDA-MB-435) | GI50 (SN12C) | GI50 (MDA-N) | GI50 (IGROV-1) | GI50 (NCI-H23) | GI50 (SR) | GI50 (KM12) | GI50 (UACC-62) | GI50 (CCRF-CEM) | GI50 (HCC 2998) | GI50 (OVCAR-8) | GI50 (A498) | GI50 (SNB-19) | GI50 (DU-145)
1 | CC(C)CC(NC(=O)C(Cc1ccccc1)NC(=O)[C@H]1CC[C@H](NC(=O)C(Cc2ccc(OC(C)(C)C)cc2)NC(=O)OC(C)(C)C)C1)C(N)=O (stereo not given in full) | 18.1 µM (inactive) | 14.4 µM (inactive) | 46.7 µM (inactive) | > 100 µM (inactive) | 67.8 µM (inactive) | 39.8 µM (inactive) | 18.7 µM (inactive) | 17.7 µM (inactive) | 19.3 µM (inactive) | 23.1 µM (inactive) | 16.2 µM (inactive) | 29.9 µM (inactive) | 20.2 µM (inactive) | 18.7 µM (inactive) | 14.6 µM (inactive) | 14.5 µM (inactive) | 18.4 µM (inactive) | 39.7 µM (inactive) | 38.4 µM (inactive) | 
2 | NC(CNO)C(=O)O (stereo not given) | > 100 µM (inactive) | > 100 µM (inactive) | > 100 µM (inactive) | > 100 µM (inactive) | > 100 µM (inactive) | > 100 µM (inactive) | > 100 µM (inactive) | > 100 µM (inactive) | > 100 µM (inactive) | > 100 µM (inactive) | > 100 µM (inactive) |  | > 100 µM (inactive) | > 100 µM (inactive) |  |  | > 100 µM (inactive) | > 100 µM (inactive) | > 100 µM (inactive) | > 100 µM (inactive)
3 | O=C(Nc1cc(C(=O)Nc2cccc(S(=O)(=O)O)c2)cc(C(=O)Nc2cccc(S(=O)(=O)O)c2)c1)c1cccc(C(=O)Nc2cc(C(=O)Nc3cccc(S(=O)(=O)O)c3)cc(C(=O)Nc3cccc(S(=O)(=O)O)c3)c2)c1 | > 100 µM (inactive) | > 100 µM (inactive) | > 100 µM (inactive) | > 100 µM (inactive) | > 100 µM (inactive) | > 100 µM (inactive) | > 100 µM (inactive) | > 100 µM (inactive) | > 100 µM (inactive) | > 100 µM (inactive) | > 100 µM (inactive) |  | 30.7 µM (inactive) | > 100 µM (inactive) | > 100 µM (inactive) | > 100 µM (inactive) | > 100 µM (inactive) | 84.7 µM (inactive) |  | > 100 µM (inactive)
4 | CCOC(=O)c1cn(CC)c2ccc3ccsc3c2c1=O | > 100 µM (inactive) | > 100 µM (inactive) | > 100 µM (inactive) | > 100 µM (inactive) | > 100 µM (inactive) | > 100 µM (inactive) | > 100 µM (inactive) |  | > 100 µM (inactive) | > 100 µM (inactive) | > 100 µM (inactive) |  | > 100 µM (inactive) | > 100 µM (inactive) | > 100 µM (inactive) | > 100 µM (inactive) | > 100 µM (inactive) | > 100 µM (inactive) | > 100 µM (inactive) | > 100 µM (inactive)
5 | Cc1cn(CC2=NCC(C)N2)c(=O)[nH]c1=O (stereo not given) | > 100 µM (inactive) |  | > 100 µM (inactive) |  | > 100 µM (inactive) | > 100 µM (inactive) |  | > 100 µM (inactive) | > 100 µM (inactive) | > 100 µM (inactive) | > 100 µM (inactive) | > 100 µM (inactive) |  | > 100 µM (inactive) |  | > 100 µM (inactive) | > 100 µM (inactive) | > 100 µM (inactive) | > 100 µM (inactive) | > 100 µM (inactive)
6 | O=C1NC(c2ccccc2)N=C2Oc3ccccc3C=C12 (stereo not given) | 0.0753 µM (active) | 2.6 µM (inactive) | 0.281 µM (active) | 0.0255 µM (active) | 0.603 µM (active) | 2.87 µM (inactive) | < 0.0265 µM (active) | 3.27 µM (inactive) | 0.0738 µM (active) | 0.535 µM (active) | 0.151 µM (active) |  | 2.62 µM (inactive) | 0.127 µM (active) | 0.562 µM (active) | 0.0277 µM (active) | 3.47 µM (inactive) | 1.27 µM (inactive) | 4.61 µM (inactive) | 0.231 µM (active)
7 | O=C1Nc2c(Cl)cc(Cl)cc2/C1=N/N=C/c1ccccc1O | 19.5 µM (inactive) | 20.6 µM (inactive) | 19.4 µM (inactive) | 19.4 µM (inactive) | 21.2 µM (inactive) | 29.2 µM (inactive) | 21.7 µM (inactive) | 18.3 µM (inactive) | 17.4 µM (inactive) | 26.1 µM (inactive) | 19.5 µM (inactive) | 16.3 µM (inactive) | 26.4 µM (inactive) | 17.2 µM (inactive) | 21.5 µM (inactive) | 17.9 µM (inactive) | 21.4 µM (inactive) | 18.7 µM (inactive) | 61.8 µM (inactive) | 
8 | O=C(N/N=C(COc1ccc([N+](=O)[O-])cc1)\N=C\c1ccncc1)c1ccncc1 | > 100 µM (inactive) | > 100 µM (inactive) | > 100 µM (inactive) | > 100 µM (inactive) | > 100 µM (inactive) | > 100 µM (inactive) | > 100 µM (inactive) | > 100 µM (inactive) | > 100 µM (inactive) | > 100 µM (inactive) | > 100 µM (inactive) |  | > 100 µM (inactive) | > 100 µM (inactive) | > 100 µM (inactive) | > 100 µM (inactive) | 60.1 µM (inactive) | > 100 µM (inactive) | > 100 µM (inactive) | > 100 µM (inactive)
9 | CC(=O)c1cccc(NC(=O)C(=O)c2c(O)oc3ccccc3c2=O)c1 | > 100 µM (inactive) | > 100 µM (inactive) | > 100 µM (inactive) | > 100 µM (inactive) | > 100 µM (inactive) | > 100 µM (inactive) | > 100 µM (inactive) | > 100 µM (inactive) | > 100 µM (inactive) | > 100 µM (inactive) | > 100 µM (inactive) | > 100 µM (inactive) | > 100 µM (inactive) | > 100 µM (inactive) | > 100 µM (inactive) | > 100 µM (inactive) | > 100 µM (inactive) | > 100 µM (inactive) | > 100 µM (inactive) | 
10 | CCN(CC)c1nnc(CCCCCCCCc2nnc(N(CC)CC)o2)o1 | > 100 µM (inactive) | > 100 µM (inactive) | > 100 µM (inactive) | > 100 µM (inactive) | > 100 µM (inactive) | > 100 µM (inactive) | > 100 µM (inactive) | > 100 µM (inactive) | > 100 µM (inactive) | > 100 µM (inactive) | > 100 µM (inactive) |  | > 100 µM (inactive) |  | > 100 µM (inactive) |  | > 100 µM (inactive) | > 100 µM (inactive) | > 100 µM (inactive) | > 100 µM (inactive)
11 | O=C1C=CC(=O)c2c(NCC3CC3)ccc(NCC3CC3)c21 | 46.2 µM (inactive) | 25.5 µM (inactive) | 56.4 µM (inactive) |  |  | 39.9 µM (inactive) | 19.7 µM (inactive) | 23.2 µM (inactive) |  | 47.9 µM (inactive) | 26.4 µM (inactive) | 21.9 µM (inactive) | 33.6 µM (inactive) | 18.3 µM (inactive) |  | 57.5 µM (inactive) | 56.2 µM (inactive) | 60.5 µM (inactive) | > 100 µM (inactive) | 
12 | CC1=C/C(=N/N2C(=O)/C(=C/c3ccc(Cl)cc3)N=C2c2ccccc2)CC(C)(C)C1 | 61.2 µM (inactive) | 47.1 µM (inactive) | 57 µM (inactive) | > 100 µM (inactive) | 91.6 µM (inactive) | > 100 µM (inactive) | 51.3 µM (inactive) | > 100 µM (inactive) | 67.6 µM (inactive) | 52.1 µM (inactive) | > 100 µM (inactive) | 31 µM (inactive) | 51.1 µM (inactive) | 61.9 µM (inactive) |  | > 100 µM (inactive) | 32.7 µM (inactive) | > 100 µM (inactive) | 65.5 µM (inactive) | 
13 | O=C(O)CC(NC(=O)Nc1ccc([N+](=O)[O-])cc1)C(=O)Nc1ccc([N+](=O)[O-])cc1 (stereo not given) | > 100 µM (inactive) | > 100 µM (inactive) | > 100 µM (inactive) | > 100 µM (inactive) | > 100 µM (inactive) | > 100 µM (inactive) | > 100 µM (inactive) |  | > 100 µM (inactive) | > 100 µM (inactive) | > 100 µM (inactive) |  | > 100 µM (inactive) | 0.69 µM (active) | > 100 µM (inactive) | > 100 µM (inactive) | > 100 µM (inactive) | > 100 µM (inactive) | > 100 µM (inactive) | > 100 µM (inactive)
14 | CN1N=CSC12C(=O)N(c1ccc(Cl)cc1)C(=O)N2c1ccc(Cl)cc1 (stereo not given) |  | 5.82 µM (inactive) | 4.22 µM (inactive) | 3.92 µM (inactive) | 5.33 µM (inactive) | 2.77 µM (inactive) |  | 3.44 µM (inactive) |  | 5.05 µM (inactive) | 2.12 µM (inactive) | 2.75 µM (inactive) | 3.58 µM (inactive) | 3.36 µM (inactive) | 3.37 µM (inactive) | 3.33 µM (inactive) | 3.51 µM (inactive) | 3.1 µM (inactive) | 3.82 µM (inactive) | 
15 | COC1C(O)CC(OC2CC(OC3CC(O[C@@H]4C(=O)c5c(cc6cc(OC7CC(OC8CC(O)C(O)C(C)O8)C(O)C(C)O7)c(C)c(O)c6c5O)C[C@H]4[C@H](OC)C(=O)[C@@H](O)[C@@H](C)O)OC(C)C3O)OC(C)C2O)OC1C (stereo not given in full) |  | < 0.0119 µM (active) | < 0.0194 µM (active) | 0.356 µM (active) | < 0.01 µM (active) | < 0.0191 µM (active) |  | < 0.0197 µM (active) |  |  |  | < 0.01 µM (active) | 0.0168 µM (active) | < 0.0131 µM (active) |  | 0.0136 µM (active) | < 0.0193 µM (active) |  | < 0.0194 µM (active) | < 0.01 µM (active)
